Measurements reported in patent US20240417405A1, “Substituted Spiro Derivatives” (Janssen Pharmaceutica NV, priority 2021, published 2024).
Read-outs that look alike come from different tables or passages of the source.

Tests used:
[1] = target: T1, menin/MLL (terbium chelate-labeled menin, FITC-MBM1 peptide) (Homo sapiens, UniProt O00255, T541A); assay: Menin/MLL homogenous time-resolved fluorescence (HTRF) assay; assay type: binding; conditions: 30 min incubation
T1 construct: Menin (a.a 1-610-6xhis tag)
T1 sequence (O00255 with tags, fused parts or gaps T541A): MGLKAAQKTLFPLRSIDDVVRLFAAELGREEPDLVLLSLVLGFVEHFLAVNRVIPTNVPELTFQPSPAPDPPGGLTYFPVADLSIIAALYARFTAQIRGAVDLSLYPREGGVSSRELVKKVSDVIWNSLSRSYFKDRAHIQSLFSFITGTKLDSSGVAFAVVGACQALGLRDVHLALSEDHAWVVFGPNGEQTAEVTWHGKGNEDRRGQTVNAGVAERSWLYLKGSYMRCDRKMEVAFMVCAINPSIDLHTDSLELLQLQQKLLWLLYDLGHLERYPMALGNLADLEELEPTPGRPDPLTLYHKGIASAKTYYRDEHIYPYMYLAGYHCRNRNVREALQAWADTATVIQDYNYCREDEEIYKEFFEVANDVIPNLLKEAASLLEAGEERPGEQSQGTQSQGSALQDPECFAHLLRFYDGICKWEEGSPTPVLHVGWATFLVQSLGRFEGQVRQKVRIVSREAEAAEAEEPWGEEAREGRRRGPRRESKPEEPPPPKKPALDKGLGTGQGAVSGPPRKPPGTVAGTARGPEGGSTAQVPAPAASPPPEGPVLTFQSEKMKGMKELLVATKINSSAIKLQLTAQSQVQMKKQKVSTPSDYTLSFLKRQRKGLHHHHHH
In short: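 Percent inhibition, calculated from the 520/490 nm HTRF ratio against high and low controls, was fitted for IC50 with a 0.1 nM detection limit. Reactions held 200 pM Tb-menin and 75 nM FITC-MBM1 in pH 7.5 Tris buffer with 0.5% DMSO.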

MOLM14 cells = assay: Proliferation assay, spheroid-like growth, MOLM14 (MLL-AF9 rearranged); assay type: cell-based, human; conditions: 8 days, confluence as measure of spheroid size, read-out: spheroid assay_OneTime MOLM14 IC50
In short: (§1)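 Seed cells at linear-growth densities in low-attachment wells; add test compound at several concentrations, normalized to 0.3% DMSO; incubate 8 days at 37 °C; image spheroids and measure confluence; calculate absolute IC50 against DMSO and reference-compound controls.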

KO-52 cells = assay: Proliferation assay, spheroid-like growth, KO-52 (MLL wildtype control cell line); assay type: cell-based, human; conditions: KO-52 control cells, 8 days, confluence as measure of spheroid size, read-out: spheroid assay_OneTime KO-52 IC50
In short: as §1

SMILES	IC50 [1] [nM]	IC50 (MOLM14 cells; Homo sapiens, MOLM-14, 192 h) [nM]	IC50 (KO-52 cells; Homo sapiens, 192 h) [nM]	IC50 (MOLM14 cells) [nM]	IC50 (KO-52 cells) [nM]
CC(C)[C@H]([C@H]1C[C@@H](NC(=O)C(C)(C)C)C1)N1CC2(CCN(c3ncnnc3Oc3ccc(F)cc3-c3cncnc3C3CC3)C2)C1 (single isomer, unassigned) [Compound 300]	0.3	170	8190	–	–
CC(C)[C@@H]([C@H]1C[C@H](N2CC[C@H](C(=O)N(C)C)C2)C1)N1CC2(CCN(c3ncnnc3Oc3ccc(F)cc3-c3cnncc3C3CC3)C2)C1 (single isomer, unassigned) [Compound 117]	0.1	170	> 15000	–	–
CC(C)[C@H]([C@H]1C[C@@H](N2CC[C@@]3(CCN(C)C3=O)C2)C1)N1CC2(CCN(c3ncnnc3Oc3ccc(F)cc3-c3cncnc3C3CC3)C2)C1 (single isomer, unassigned) [Compound 66]	0.1	6	> 15000	–	–
CC(C)[C@@H]([C@H]1C[C@]2(COC(=O)N2)C1)N1CC2(CCN(c3ncnnc3Oc3ccc(F)cc3-c3nnccc3C3CC3)C2)C1 (single isomer, unassigned) [Compound 324]	117	> 940	> 15000	–	–
CC(C)[C@H]([C@H]1C[C@@H](NC(=O)C2CC2)C1)N1CC2(CCN(c3ncnnc3Oc3ccc(F)cc3-c3nncn3C3CC3)C2)C1 (single isomer, unassigned) [Compound 307]	0.7	> 940	> 15000	–	–
CC(C)C([C@H]1C[C@@H](N2CCC(C(=O)N(C)C)CC2)C1)N1CC2(CCN(c3ncnnc3Oc3ccc(F)cc3-c3cncnc3C3CC3)C2)C1 (stereo partly drawn) [Compound 131]	0.2	50	6200	–	–
COC1CN([C@H]2C[C@@H]([C@H](C(C)C)N3CC4(CCN(c5ncnnc5Oc5ccc(F)cc5-c5nnccc5C5CC5)C4)C3)C2)C1 (single isomer, unassigned) [Compound 260]	0.1	6	3250	–	–
CC(C)C([C@H]1C[C@@H](NCC(C)(C)O)C1)N1CC2(CCN(c3ncnnc3Oc3ccc(F)cc3-c3cncnc3C3CC3)C2)C1 (stereo partly drawn) [Compound 133]	0.1	21	7380	–	–
CS(=O)(=O)C1CCN([C@H]2C[C@@H]([C@@H](N3CC4(CCN(c5ncnnc5Oc5ccc(F)cc5-c5cncnc5C5CC5)C4)C3)C34CC(C3)C4)C2)CC1 (single isomer, unassigned) [Compound 341]	3	> 940	> 15000	–	–
CC(C)[C@@H]([C@H]1C[C@H](N2CC3(CCO3)C2)C1)N1CC2(CCN(c3ncnnc3Oc3ccc(F)cc3-c3cnncc3C3CC3)C2)C1 (single isomer, unassigned) [Compound 103]	0.1	100	12200	–	–
CC(C)[C@H]([C@H]1C[C@]2(CCC(=O)N2)C1)N1CC2(CCN(c3ncnnc3Oc3ccc(F)cc3-c3cncnc3C3CC3)C2)C1 (single isomer, unassigned) [Compound 313]	43.4	> 940	> 15000	–	–
CC(C)[C@H]([C@H]1C[C@@H](N2C[C@H]3COC[C@H]3C2)C1)N1CC2(CCN(c3ncnnc3Oc3ccc(F)cc3-c3cnc(C#N)nc3C3CC3)C2)C1 [Compound 167]	0.1	< 2	4110	–	–
CC(C)C([C@H]1C[C@@H](N2CCC(F)(F)CC2)C1)N1CC2(CCN(c3ncnnc3Oc3ccc(F)cc3-c3cncnc3C3CC3)C2)C1 (stereo partly drawn) [Compound 127]	0.5	160	4660	–	–
CC(=O)N[C@H]1C[C@@H]([C@@H](C(C)C)N2CC3(CCN(c4ncnnc4Oc4ccc(F)cc4-c4nncnc4C4CC4)C3)C2)C1 (single isomer, unassigned) [Compound 306]	0.3	56	6460	–	–
CC(C)C([C@H]1C[C@@H](N2CCS(=O)(=O)CC2)C1)N1CC2(CCN(c3ncnnc3Oc3ccc(F)cc3-c3cncnc3C3CC3)C2)C1 (stereo partly drawn) [Compound 123]	5.4	1910	> 15000	–	–
CC(=O)N1CC2(C1)CN([C@H]1C[C@H]([C@@H](C(C)C)N3CC4(CCN(c5ncnnc5Oc5ccc(F)cc5-c5cncnc5C5CC5)C4)C3)C1)C2 (single isomer, unassigned) [Compound 171]	0.1	31	> 15000	–	–
CO[C@H]1CCCN([C@H]2C[C@@H]([C@H](C(C)C)N3CC4(CCN(c5ncnnc5Oc5ccc(F)cc5-c5nnccc5C5CC5)C4)C3)C2)C1 (single isomer, unassigned) [Compound 256]	0.2	5	> 15000	–	–
CC(C)[C@H]([C@H]1C[C@@H](N2CC(C(=O)N(C)C)C2)C1)N1CC2(CCN(c3ncnnc3Oc3ccc(F)cc3-c3cncnc3C3CC3)C2)C1 (single isomer, unassigned) [Compound 243]	2.5	580	> 15000	–	–
CC(C)[C@H]([C@H]1C[C@@H](N2CCC[C@H](C(=O)N(C)C)C2)C1)N1CC2(CCN(c3ncnnc3Oc3ccc(F)cc3-c3cncnc3C3CC3)C2)C1 (single isomer, unassigned) [Compound 51]	0.1	14	14400	–	–
CC(C)[C@H]([C@H]1C[C@@H](N2CCC[C@H](O)C2)C1)N1CC2(CCN(c3ncnnc3Oc3ccc(F)cc3-c3cccnc3C3CC3)C2)C1 (single isomer, unassigned) [Compound 78]	2.9	630	4640	–	–
CC(C)[C@H]([C@H]1C[C@@H](N2CCC3(COC3)C2)C1)N1CC2(CCN(c3ncnnc3Oc3ccc(F)cc3-c3nnccc3C3CC3)C2)C1 (single isomer, unassigned) [Compound 255]	4.7	920	> 15000	–	–
CC(=O)N1CCC2C1CCN2[C@H]1C[C@@H]([C@@H](C(C)C)N2CC3(CCN(c4ncnnc4Oc4ccc(F)cc4-c4cncnc4C4CC4)C3)C2)C1 (single isomer, unassigned) [Compound 55]	0.5	–	–	95	6430
CC(C)C(C1CC2(CCN2)C1)N1CC2(CCN(c3ncnnc3Oc3ccc(F)cc3-c3cncnc3C3CC3)C2)C1 (stereo not drawn) [Compound 198]	0.3	250	> 15000	–	–
CC(=O)N[C@H]1C[C@@H](C(C(C)C)N2CC3(CCN(c4ncnnc4Oc4ccc(F)cc4-c4c[nH]c(=O)nc4C4CC4)C3)C2)C1 (stereo partly drawn) [Compound 196]	13.6	> 940	> 15000	–	–
CC(C)C([C@H]1C[C@@H](N2CCCCC2)C1)N1CC2(CCN(c3ncnnc3Oc3ccc(F)cc3-c3cncnc3C3CC3)C2)C1 (stereo partly drawn) [Compound 135]	0.3	8	1000	–	–
CC(C)[C@@H]([C@H]1C[C@@H](N2CC[C@](C)(O)C2)C1)N1CC2(CCN(c3ncnnc3Oc3ccc(F)cc3-c3ncncc3C3CC3)C2)C1 (single isomer, unassigned) [Compound 99]	0.1	2	2000	–	–
CC(C)[C@@H]([C@H]1C[C@H](NC2CC2)C1)N1CC2(CCN(c3ncnnc3Oc3ccc(F)cc3-c3nnccc3C3CC3)C2)C1 (single isomer, unassigned) [Compound 273]	0.3	110	> 15000	–	–
CC(C)C([C@H]1C[C@@H](N2CCC(S(C)(=O)=O)CC2)C1)N1CC2(CCN(c3ncnnc3Oc3ccc(F)cc3-c3cncnc3C3CC3)C2)C1 (stereo partly drawn) [Compound 132]	0.3	76	8100	–	–
CC(C)[C@H]([C@H]1C[C@H](N2CCC3(C2)CS(=O)(=O)C3)C1)N1CC2(CCN(c3ncnnc3Oc3ccc(F)cc3-c3cncnc3C3CC3)C2)C1 (single isomer, unassigned) [Compound 204]	0.3	190	> 15000	–	–
